# Values joined by “and” are separate entries in the source; they are usually repeats but may differ in a detail not shown here. Equal values may be shown once. Read-outs that look alike come from different tables or passages of the source. Marks after values point to notes of the source that are not given here.
# Experiments:
# [1] = test system: peripheral blood lymphocytes stimulated by OKT3 antibody (anti-CD3); assay: OKT3 stimulation assay, [3H]TdR incorporation; format: cell-based, human; conditions: Reverse Prenyl Compounds, read-out: IC50 OKT3 Assays
# Protocol: (§1) Fresh peripheral blood lymphocytes isolated by Ficoll-Hypaque density centrifugation are stimulated by PHA or the OKT3 antibody (anti-CD3), which stimulates via interaction with CD3. Stimulation is measured by incorporation of radioactive thymidine [(^3H)TdR] into proliferating cells, with an unhibited control signal of 48,000-75,000 cpm. IC50 values are estimated from inhibitions of proliferation observed at various drug concentrations.
# [2] = test system: peripheral blood lymphocytes stimulated by PHA; assay: PHA stimulation assay, [3H]TdR incorporation; format: cell-based, human; conditions: Reverse Prenyl Compounds, read-out: IC50 PHA Assays
# Protocol: as §1
# [3] = test system: Human Peripheral Blood Lymphocytes; assay: Thymidine incorporation assay: activation of human peripheral blood lymphocytes by phytohemagglutinin; format: cell-based; conditions: drug 30 min, then 10 μg/ml PHA 24 hrs, [3H]Thd incorporation
# Protocol: Inhibitory Effects of Ardeemin Compounds on the Activation of Human Peripheral Blood Lymphocytes by Phytohemagglutinin
# Thymidine Incorporation Assay:
# PBL were exposed to various concentrations of drugs for 30 min and then added 10 μg/ml PHA for 24 hrs. [^3H]Thd (1 μCi/well) was then added and incubated for 1 hr. The reaction is stopped by adding 10% TCA for analysis of [^3H]Tdk incorporation into DNA.
# [4] = test system: heterotopic cardiac transplants; assay: Heterotopic mouse cardiac transplants (prospective example); format: in vivo, mice; conditions: 40 mg/kg-1 mg/25 g per day, i.v., 7 or 14 days, Alzet pump
# Protocol: 5-N-Acetylardeemin and 5-N-acetyl-8-desmethylardeemin are individually administered to mice which have received heterotopic cardiac transplants at a range of concentrations (40 mg/kg-1 mg/25 g per day), i.v., for seven days or fourteen days using an Alzet pump. Each compound is dissolved in DMSO at high concentration prior to administration. Control animals receive the same volume of carrier solvent (40 μL DMSO).
# B6D2F1 mice = assay: Cumulative toxicity in B6D2F1 mice
# Protocol: FIG. 2 illustrates the cumulative toxicity in B6D2F1 mice treated with multidrug resistance reversal agents (mg/kg,i.p.,QD). Each group consists of five mice. […] Cumulated doses in the series shown in panels A, B and C were 712.5, 1700 and 3950 mg/kg×day, respectively.
# [5] = test system: inflammation induced by carrageene; assay: Inflammation induced by carrageene in mice pedis; format: in vivo
# P388/0 Tumors = format: in vivo; design: SURVIVAL TIME of individual mice (No. 1-6): unit: days
# Protocol: Survival times were determined for B6D2F1 mice inoculated with P388/0 cells, 10^6 cells/mouse, i.p. at Day 0. The mice were treated by adriamycin and 5-N-acetylardeemin, i.p., daily for four days. Survival times were recorded based on the time of death with the following scheme of decimal values: 8AM (0.0), 1PM (0.25), 5PM (0.5). An in vivo immunosuppressive effect of the ardeemin derivatives is found which persistently […] the lifespan of P388 tumor-bearing B6D2F1 mice in a dose-dependent manner.
# [6] = test system: inflammation induced by carrageene; assay: Inflammation induced by carrageene in mice pedis; format: in vivo; remark: listed apart in the source
# Protocol: FIG. 3 illustrates the delayed treatment of inflammation induced by carrageene with aspirin, N-acetylardeemin and hydrocortisone. (●) Control; (▪) Aspirin (500 mg/kg, p.o.); (Δ) N-acetylardeemin (100 mg/kg, i.p.); (x) Hydrocortisone cream.
# FIG. 4 illustrates the treatment of inflammation induced by carrageene with aspirin, N-acetylardeemin and hydrocortisone. (●) Control; (▪) Aspirin (500 mg/kg, p.o.); (Δ) N-acetylardeemin (100 mg/kg, i.p.); (x) Hydrocortisone cream.
# [7] = test system: peripheral blood lymphocytes stimulated by OKT3 antibody (anti-CD3); conditions: Classical immunosuppressant (historical data); read-out: IC50 OKT3 Assays; cited from earlier work
# [8] = test system: peripheral blood lymphocytes stimulated by PHA; conditions: Classical immunosuppressant (historical data); read-out: IC50 PHA Assays; cited from earlier work
# [9] = 5NAcArd 3.33 mg/kg i.p. daily Day 1-4
# [10] = 5NAcArd 10 mg/kg i.p. daily Day 1-4
# [11] = 5NAcArd 30 mg/kg i.p. daily Day 1-4
# [12] = Adr 0.333 mg/kg i.p. daily Day 1-4
# [13] = Adr 1.0 mg/kg i.p. daily Day 1-4
# [14] = Adr 3.0 mg/kg i.p. daily Day 1-4
compound,measurement,setting,value
5-N-Ac-F3-Ardeemin,IC50,[1],4.56 µM
same,IC50,[2],9.97 ± 1.49 µM
8-demethylardeemin,IC50,[1]; listed as 8-Desmethylardeemin,2.23 ± 0.16 µM
same,IC50,[1]; listed as 8-desmethylardeemin,1.2 to 2.3 µM
same,IC50,[2]; listed as 8-Desmethylardeemin,2.26 ± 0.06 µM
same,IC50,[3],2.26 µM
"C=CC(C)(C)[C@@]12C[C@H]3c4nc5ccccc5c(=O)n4CC(=O)N3[C@@H]1N(C(C)=O)c1ccccc12 [5-N-acetyl-8-demethylardeemin, 5-N-acetyl-8-desmethylardeemin]",IC50,[1],1.13 ± 0.13 µM
same,IC50,[2]; listed as 5-N-Ac-8-desmethylardeemin,1.2 ± 0.02 µM
same,resistance of organ transplant to graft rejection vs control mice,[4],more resistant to graft rejection
same,IC50,[3],0.98 µM
same,toxicity to mice,"B6D2F1 mice; FIG. 2, i.p., QD",very nontoxic
same,toxicity to mice,"B6D2F1 mice; sequential 100 mg/kg i.p. QDx6, 150 mg/kg QDx8, 200 mg/kg QDx3, 300 mg/kg QDx3",non-toxic
same,average body weight decreases,"B6D2F1 mice; up to 250 mg/kg, Qdx3",less than 0.5 g
C=CC(C)(C)[C@@]12C[C@H]3c4nc5ccccc5c(=O)n4[C@H](C)C(=O)N3[C@@H]1N(C(C)=O)c1ccccc12 [5-N-acetylardeemin],IC50,[1],31.9 µM
same,"Average Pedis Area, Hours: 0",[5]; 50 mg/kg i.p.,6.8 mm^2
same,"Average Pedis Area, Hours: 12",[5]; 50 mg/kg i.p.,12.4 mm^2
same,"Average Pedis Area, Hours: 24",[5]; 50 mg/kg i.p.,12.7 mm^2
same,"Average Pedis Area, Hours: 48",[5]; 50 mg/kg i.p.,11.3* mm^2
same,"Average Pedis Area, Hours: 60",[5]; 50 mg/kg i.p.,15.6 mm^2
same,Toxicity Death,[5]; 50 mg/kg i.p.,0/5
same,"Average Pedis Area, Hours: 12",[5]; 100 mg/kg i.p.,9.7*** mm^2
same,"Average Pedis Area, Hours: 24",[5]; 100 mg/kg i.p.,9.0*** mm^2
same,"Average Pedis Area, Hours: 48",[5]; 100 mg/kg i.p.,8.6*** mm^2
same,% ILS (% increase in lifespan),P388/0 Tumors; [9],−2%
same,AWC D 4,P388/0 Tumors; [9],+0.9 Gm
same,AWC D 6,P388/0 Tumors; [9],+3.3 Gm
same,MST (mean survival time),P388/0 Tumors; [9],7.25
same,SURVIVAL TIME of individual mice (No. 1-6),P388/0 Tumors; [9],8.0 (2×) and 6.0 and 7.0
same,% ILS (% increase in lifespan),P388/0 Tumors; [10],−10%
same,AWC D 4,P388/0 Tumors; [10],+1.7 Gm
same,AWC D 6,P388/0 Tumors; [10],+4.8 Gm
same,MST (mean survival time),P388/0 Tumors; [10],6.67
same,SURVIVAL TIME of individual mice (No. 1-6),P388/0 Tumors; [10],7.5 and 6.0 and 6.5
same,% ILS (% increase in lifespan),P388/0 Tumors; [11],−16%
same,AWC D 4,P388/0 Tumors; [11],+1.6 Gm
same,AWC D 6,P388/0 Tumors; [11],+3.8 Gm
same,MST (mean survival time),P388/0 Tumors; [11],6.25
same,SURVIVAL TIME of individual mice (No. 1-6),P388/0 Tumors; [11],6.0 and 6.5
same,"Average Pedis Area, Hours: 0",[6]; 100 mg/kg i.p.,7.1 mm^2
same,"Average Pedis Area, Hours: 60",[6]; 100 mg/kg i.p.,10.2*** mm^2
same,Toxicity Death,[6]; 100 mg/kg i.p.,0/5
same,IC50,[2],7.96 µM
same,resistance of organ transplant to graft rejection vs control mice,[4],more resistant to graft rejection
same,IC50,[3],1.91 µM
same,toxicity to mice,"B6D2F1 mice; FIG. 2, i.p., QD",relatively nontoxic
S=c1nc[nH]c2nc[nH]c12 [6-MP],IC50,[7],0.136 ± 0.019 µM
same,IC50,[8],0.044 ± 0.017 µM
"COc1cccc2c1C(=O)c1c(O)c3c(c(O)c1C2=O)C[C@@](O)(C(=O)CO)C[C@@H]3O[C@H]1C[C@H](N)[C@H](O)[C@H](C)O1 [Adr, adriamycin, reference compound]",% ILS (% increase in lifespan),P388/0 Tumors; [12],85%
same,MST (mean survival time),P388/0 Tumors; [12],13.75
same,% ILS (% increase in lifespan),P388/0 Tumors; [13],129%
same,MST (mean survival time),P388/0 Tumors; [13],17.0
same,% ILS (% increase in lifespan),P388/0 Tumors; [14],145%
same,MST (mean survival time),P388/0 Tumors; [14],18.19
CC(=O)Oc1ccccc1C(=O)O [Aspirin],"Average Pedis Area, Hours: 0",[5]; 250 mg/kg p.o.,6.9 mm^2
same,"Average Pedis Area, Hours: 12",[5]; 250 mg/kg p.o.,12.5 mm^2
same,"Average Pedis Area, Hours: 24",[5]; 250 mg/kg p.o.,12.3 mm^2
same,"Average Pedis Area, Hours: 48",[5]; 250 mg/kg p.o.,13.2 mm^2
same,"Average Pedis Area, Hours: 60",[5]; 250 mg/kg p.o.,15.4** mm^2
same,Toxicity Death,[5]; 250 mg/kg p.o.,0/5
same,"Average Pedis Area, Hours: 12",[5]; 500 mg/kg p.o.,9.9** mm^2
same,"Average Pedis Area, Hours: 24",[5]; 500 mg/kg p.o.,10.6** mm^2
same,"Average Pedis Area, Hours: 48",[5]; 500 mg/kg p.o.,9.0*** mm^2
same,"Average Pedis Area, Hours: 60",[5]; 500 mg/kg p.o.,10.0*** mm^2
same,Toxicity Death,[5]; 500 mg/kg p.o.,0/5
same,"Average Pedis Area, Hours: 0",[5]; 1000 mg/kg p.o.,6.5 mm^2
same,"Average Pedis Area, Hours: 12",[5]; 1000 mg/kg p.o.,8.8*** mm^2
same,Toxicity Death,[5]; 1000 mg/kg p.o.,5/6
same,"Average Pedis Area, Hours: 0",[6]; 500 mg/kg p.o.,6.8 mm^2
Cc1c(-c2ccc(-c3ccccc3F)cc2)nc2ccc(F)cc2c1C(=O)O [Brequinard],IC50,[7],56.6 ± 22.7 µM
same,IC50,[3],11.2 µM
same,IC50,[8],11.2 ± 4 µM
"C[C@@H]1C[C@H]2[C@@H]3CCC4=CC(=O)C=C[C@]4(C)[C@@]3(F)[C@@H](O)C[C@]2(C)[C@@]1(O)C(=O)CO [Dexamethasone, reference compound]",IC50,"[3]; Homo sapiens, Lymphocyte",28.2 µM
C=CC(C)(C)[C@@]12Nc3ccccc3[C@]1(O)C[C@H]1C(=O)N3[C@@H](C[C@]4(O)c5ccccc5N[C@]34C(C)(C)C=C)C(=O)N12 [Gypsetin],IC50,[1],12 ± 0.51 µM
same,IC50,[2],5.48 ± 1.24 µM
C[C@]12CCC(=O)C=C1CC[C@@H]1[C@@H]2[C@@H](O)C[C@@]2(C)[C@H]1CC[C@]2(O)C(=O)CO [Hydrocortisone],"Average Pedis Area, Hours: 0","[5]; 1% Cream, Skin",6.9 mm^2
same,"Average Pedis Area, Hours: 24","[5]; 1% Cream, Skin",8.9*** mm^2
same,"Average Pedis Area, Hours: 48","[5]; 1% Cream, Skin",7.8*** mm^2
same,"Average Pedis Area, Hours: 60","[5]; 1% Cream, Skin",7.9*** mm^2
same,"Average Pedis Area, Hours: 12","[6]; 1% Cream, Skin",9.0*** mm^2
same,Toxicity Death,"[6]; 1% Cream, Skin",0/5
COc1c(C)c2c(c(O)c1C/C=C(\C)CCC(=O)O)C(=O)OC2 [MPA],IC50,[7],0.416 ± 0.21 µM
same,IC50,[8],0.095 ± 0.027 µM
"CO[C@H]1C[C@@H]2CC[C@@H](C)[C@@](O)(O2)C(=O)C(=O)N2CCCC[C@H]2C(=O)O[C@H]([C@H](C)C[C@@H]2CC[C@@H](O)[C@H](OC)C2)CC(=O)[C@H](C)/C=C(\C)[C@@H](O)[C@@H](OC)C(=O)[C@H](C)C[C@H](C)/C=C/C=C/C=C/1C [Rapamycine, reference compound]",IC50,"[3]; Homo sapiens, Lymphocyte",0.61 µM

# Source: patent US6355639B1, “Reverse prenyl compounds as immunosuppressants” (Sloan-Kettering Institute for Cancer Research, priority 1997, dated 2002)
